Assay results: patent US20250353844A1, “TETRAHYDROPYRIDO 3,4-D PYRIMIDINE DERIVATIVES AS KRAS INHIBITORS” (Bristol-Myers Squibb Company, priority 2022, published 2025)

Target: Recombinant GMPPNP-loaded KRAS G12C (KRAS-G12C(ON)) / GST-RAF1 RBD (Homo sapiens, UniProt P01116, G12C)
Assay: KRAS G12C RAF Disruption Assay (HTRF)
Type: biochemical
Conditions: GMPPNP-loaded KRAS G12C 5 nM, compound 20 min at room temperature, GST-RAF1 RBD 9 nM, HTRF signal; read-out: KRASG12C RAF Disruption Assay (IC50)
Experimental: Recombinant GST-RAF1 RBD (9 nM) was added, and the reaction mixture was incubated for 20 minutes. SA-Tb (0.25 nM) was added, and the reaction mixture was incubated for 3 hours. HTRF signal was measured (PerkinElmer Envision), the signal ratio (λem 520/λem 495) was calculated, and IC50 values were calculated from the dose-response curve.

Chain of Recombinant GMPPNP-loaded KRAS G12C (KRAS-G12C(ON)) / GST-RAF1 RBD (P01116 1-188 isoform P01116-2 G12C): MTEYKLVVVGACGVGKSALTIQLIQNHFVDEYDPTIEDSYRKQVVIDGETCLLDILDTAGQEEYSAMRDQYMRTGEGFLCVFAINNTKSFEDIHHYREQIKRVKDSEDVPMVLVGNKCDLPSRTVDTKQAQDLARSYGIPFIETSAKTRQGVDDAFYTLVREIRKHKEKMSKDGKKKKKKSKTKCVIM

Row | Compound | IC50 [nM]
1 | CN1CCC[C@H]1COc1nc2c(c(N3CCN(C(=O)C(F)=Cc4ccns4)[C@@H](CC#N)C3)n1)CCN(c1cccc3cccc(Cl)c13)C2 (racemic) [Example 9, 2-((S)-4-(7-(8-chloronaphthalen-1-yl)-2-(((S)-1-methylpyrrolidin-2-yl)methoxy)-5,6,7,8-tetrahydropyrido[3,4-d]pyrimidin-4-yl)-1-(2-fluoro-3-(isothiazol-5-yl)acryloyl)piperazin-2-yl)acetonitrile] | 57000
2 | CN1CCC[C@H]1COc1nc2c(c(N3CCN(C(=O)/C(F)=C/c4ccncc4)[C@@H](CC#N)C3)n1)CCN(c1cccc3cccc(Cl)c13)C2 [Example 3, 2-((S)-4-(7-(8-chloronaphthalen-1-yl)-2-(((S)-1-methylpyrrolidin-2-yl)methoxy)-5,6,7,8-tetrahydropyrido[3,4-d]pyrimidin-4-yl)-1-((Z)-2-fluoro-3-(pyridin-4-yl)acryloyl)piperazin-2-yl)acetonitrile] | 329
3 | N#CC[C@H]1CN(c2nc(OC[C@@]34CCCN3C[C@H](F)C4)nc3c2CCN(c2cccc4cccc(Cl)c24)C3)CCN1C(=O)/C(F)=C/c1ccccn1 [Example 7, 2-((S)-4-(7-(8-chloronaphthalen-1-yl)-2 (((2R,7aS)-2-fluorotetrahydro-1H-pyrrolizin-7a(5H)-yl)methoxy)-5,6,7,8-tetrahydropyrido[3,4-d]pyrimidin-4-yl)-1-((Z)-2-fluoro-3-(pyridin-2-yl)acryloyl)piperazin-2-yl)acetonitrile] | 74
4 | Cc1ccc(/C=C(\F)C(=O)N2CCN(c3nc(OC[C@@H]4CCCN4C)nc4c3CCN(c3cccc5cccc(Cl)c35)C4)C[C@@H]2CC#N)nc1 [Example 13, 2-((S)-4-(7-(8-chloronaphthalen-1-yl)-2-(((S)-1-methylpyrrolidin-2-yl)methoxy)-5,6,7,8-tetrahydropyrido[3,4-d]pyrimidin-4-yl)-1-((Z)-2-fluoro-3-(5-methylpyridin-2-yl)acryloyl)piperazin-2-yl)acetonitrile] | 192
5 | Cc1cccnc1/C=C(\F)C(=O)N1CCN(c2nc(OC[C@@H]3CCCN3C)nc3c2CCN(c2cccc4cccc(Cl)c24)C3)C[C@@H]1CC#N [Example 14, 2-((S)-4-(7-(8-chloronaphthalen-1-yl)-2-(((S)-1-methylpyrrolidin-2-yl)methoxy)-5,6,7,8-tetrahydropyrido[3,4-d]pyrimidin-4-yl)-1-((Z)-2-fluoro-3-(3-methylpyridin-2-yl)acryloyl)piperazin-2-yl)acetonitrile] | 778
6 | C[C@H]1CN(C(=O)/C(F)=C/c2nccs2)CCN1c1nc(OC[C@@H]2CCCN2C)nc2c1CCN(c1cccc3cccc(Cl)c13)C2 [Example 15, (Z)-1-((S)-4-(7-(8-chloronaphthalen-1-yl)-2-(((S)-1-methylpyrrolidin-2-yl)methoxy)-5,6,7,8-tetrahydropyrido[3,4-d]pyrimidin-4-yl)-3-methylpiperazin-1-yl)-2-fluoro-3-(thiazol-2-yl)prop-2-en-1-one] | 7500
7 | CN1CCC[C@H]1COc1nc2c(c(N3CCN(C(=O)/C(F)=C/c4ccon4)[C@@H](CC#N)C3)n1)CCN(c1cccc3cccc(Cl)c13)C2 [Example 16, 2-((S)-4-(7-(8-chloronaphthalen-1-yl)-2-(((S)-1-methylpyrrolidin-2-yl)methoxy)-5,6,7,8-tetrahydropyrido[3,4-d]pyrimidin-4-yl)-1-((Z)-2-fluoro-3-(isoxazol-3-yl)acryloyl)piperazin-2-yl)acetonitrile] | 63700

Other lines, results leading:

Row | IC50 [nM] | Compound
8 | 40300 | CN1CCC[C@H]1COc1nc2c(c(N3CCN(C(=O)/C(F)=C/c4cccnc4)[C@@H](CC#N)C3)n1)CCN(c1cccc3cccc(Cl)c13)C2 [Example 2, 2-((S)-4-(7-(8-chloronaphthalen-1-yl)-2-(((S)-1-methylpyrrolidin-2-yl)methoxy)-5,6,7,8-tetrahydropyrido[3,4-d]pyrimidin-4-yl)-1-((Z)-2-fluoro-3-(pyridin-3-yl)acryloyl)piperazin-2-yl)acetonitrile]
9 | 103 | CN1CCC[C@H]1COc1nc2c(c(N3CCN(C(=O)/C(F)=C/c4ncccn4)[C@@H](CC#N)C3)n1)CCN(c1cccc3cccc(Cl)c13)C2 [Example 4, 2-((S)-4-(7-(8-chloronaphthalen-1-yl)-2-(((S)-1-methylpyrrolidin-2-yl)methoxy)-5,6,7,8-tetrahydropyrido[3,4-d]pyrimidin-4-yl)-1-((Z)-2-fluoro-3-(pyrimidin-2-yl)acryloyl)piperazin-2-yl)acetonitrile]
10 | 89 | CN1CCC[C@H]1COc1nc2c(c(N3CCN(C(=O)/C(F)=C/c4ncco4)[C@@H](CC#N)C3)n1)CCN(c1cccc3cccc(Cl)c13)C2 [Example 6, 2-((S)-4-(7-(8-chloronaphthalen-1-yl)-2-(((S)-1-methylpyrrolidin-2-yl)methoxy)-5,6,7,8-tetrahydropyrido[3,4-d]pyrimidin-4-yl)-1-((Z)-2-fluoro-3-(oxazol-2-yl)acryloyl)piperazin-2-yl)acetonitrile]
11 | 55 | N#CC[C@H]1CN(c2nc(OC[C@@]34CCCN3C[C@H](F)C4)nc3c2CCN(c2cccc4cccc(Cl)c24)C3)CCN1C(=O)/C(F)=C/c1nccs1 [Example 8, 2-((S)-4-(7-(8-chloronaphthalen-1-yl)-2 (((2R,7aS)-2-fluorotetrahydro-1H-pyrrolizin-7a(5H)-yl)methoxy)-5,6,7,8-tetrahydropyrido[3,4-d]pyrimidin-4-yl)-1-((Z)-2-fluoro-3-(thiazol-2-yl)acryloyl)piperazin-2-yl)acetonitrile]
12 | 24000 | CN1CCC[C@H]1COc1nc2c(c(N3CCN(C(=O)/C(F)=C/c4nccn4C)[C@@H](CC#N)C3)n1)CCN(c1cccc3cccc(Cl)c13)C2 [Example 10, 2-((S)-4-(7-(8-chloronaphthalen-1-yl)-2-(((S)-1-methylpyrrolidin-2-yl)methoxy)-5,6,7,8-tetrahydropyrido[3,4-d]pyrimidin-4-yl)-1-((Z)-2-fluoro-3-(1-methyl-1H-imidazol-2-yl)acryloyl)piperazin-2-yl)acetonitrile]
13 | 144 | Cc1cccc(/C=C(\F)C(=O)N2CCN(c3nc(OC[C@@H]4CCCN4C)nc4c3CCN(c3cccc5cccc(Cl)c35)C4)C[C@@H]2CC#N)n1 [Example 11, 2-((S)-4-(7-(8-chloronaphthalen-1-yl)-2-(((S)-1-methylpyrrolidin-2-yl)methoxy)-5,6,7,8-tetrahydropyrido[3,4-d]pyrimidin-4-yl)-1-((Z)-2-fluoro-3-(6-methylpyridin-2-yl)acryloyl)piperazin-2-yl)acetonitrile]
14 | 129 | Cc1ccnc(/C=C(\F)C(=O)N2CCN(c3nc(OC[C@@H]4CCCN4C)nc4c3CCN(c3cccc5cccc(Cl)c35)C4)C[C@@H]2CC#N)c1 [Example 12, 2-((S)-4-(7-(8-chloronaphthalen-1-yl)-2-(((S)-1-methylpyrrolidin-2-yl)methoxy)-5,6,7,8-tetrahydropyrido[3,4-d]pyrimidin-4-yl)-1-((Z)-2-fluoro-3-(4-methylpyridin-2-yl)acryloyl)piperazin-2-yl)acetonitrile]
15 | 10500 | CN1CCC[C@H]1COc1nc2c(c(N3CCN(C(=O)/C(F)=C/c4ccno4)[C@@H](CC#N)C3)n1)CCN(c1cccc3cccc(Cl)c13)C2 [Example 17]
16 | 92600 | CN1CCC[C@H]1COc1nc2c(c(N3CCN(C(=O)/C(F)=C/c4cn(C)nn4)[C@@H](CC#N)C3)n1)CCN(c1cccc3cccc(Cl)c13)C2 [Example 18]
